The subject of test [1] is Proteus mirabilis Fin. #9. In words: In vitro antibiotic activity, two-fold dilution test (Mueller-Hinton agar). The note with it: for MIC: read-out: Minimum inhibitory concentration (MIC). It counts as cell-based. On the procedure: (§1) The in vitro antibiotic activities are determined by a two-fold dilution test using Mueller-Hinton agar, 10 ml per Petri plate. The inoculum of approximately 1×10^5 of the indicated test organism is delivered by the Steer's replicator. The test is incubated at 37° C. for 24 hours. Fortimicin A tetrahydrochloride and fortimicin A disulfate are used as the control antibiotics. The minimum inhibitory concentrations (MIC), listed in Table I, are expressed in mcg/ml.

In the next test the test system is Providencia 1577. The test is described as above. Format: cell-based. To be noted: for MIC: read-out: Minimum inhibitory concentration (MIC). On the procedure: as §1
For test [2], the system named is Pseudo. aeruginosa KY 8512. The description is as above. Format: cell-based. To be noted: for MIC: Pseudomonas aeruginosa. On the procedure: as §1
The next test relates to Proteus rettigeri U6333. The description is as above. It counts as cell-based. On the procedure:
as §1

Test [3] has as its system Pseudo. aeruginosa BMH #10. Described as above. Format: cell-based. To be noted: for MIC: Pseudomonas aeruginosa, read-out: Minimum inhibitory concentration (MIC). On the procedure: as §1
A further test deals with Kleb. pneumoniae KY 4262. Described as above. The note with it: for MIC: Klebsiella pneumoniae. It counts as cell-based. On the procedure: as §1
The next test concerns E. coli BL 3676 (Res). The description is as above. Format: cell-based. To be noted: for MIC: Escherichia coli, read-out: Minimum inhibitory concentration (MIC). On the procedure:
as §1

A further test has as its system Staph. aureus Smith. The description is as above. Format: cell-based. The note with it: for MIC: Staphylococcus aureus, read-out: Minimum inhibitory concentration (MIC). On the procedure: as §1
For the next test, the system named is Psuedo. aeruginosa 209. The test is described as above. Format: cell-based. The note with it: for MIC: read-out: Minimum inhibitory concentration (MIC). On the procedure:
as §1

In test [4] the test system is Enterobacter aerogenes 13048. Described as above. To be noted: for MIC: read-out: Minimum inhibitory concentration (MIC). Format: cell-based. On the procedure: as §1
In the next test the test system is Kleb. pneumoniae 10031. Described as above. Format: cell-based. On the procedure: as §1
The next test has as its system Sal. typhimurium Ed. #9. The description is as above. Format: cell-based. The note with it: for MIC: Salmonella enterica, read-out: Minimum inhibitory concentration (MIC). On the procedure:
as §1

For another test, the system named is Psuedo. aeruginosa 27853. The description is as above. It counts as cell-based. On the procedure: as §1
The next test concerns E. coli 76-2. The description is as above. It counts as cell-based. On the procedure: as §1
Another test concerns Shigella sonnei 9290. The description is as above. It counts as cell-based. To be noted: 37° C.; for Minimum inhibitory concentration (MIC): 24 hours. On the procedure: as §1
Another test relates to Serratis marcescens 4003. Described as above. Format: cell-based. On the procedure:
as §1

The test system of a further test is E. coli Juhl. The test is described as above. It counts as cell-based. To be noted: for MIC: Escherichia coli, read-out: Minimum inhibitory concentration (MIC). On the procedure:
as §1

For a further test, the system named is Proteus vulgaris JJ. Described as above. It counts as cell-based. The note with it: for MIC: read-out: Minimum inhibitory concentration (MIC). On the procedure:
as §1

A further test relates to Strep. faecalis 10541. The test is described as above. To be noted: for MIC: read-out: Minimum inhibitory concentration (MIC). Format: cell-based. On the procedure:
as §1

Test [5] concerns Pseudo. aeruginosa KY 8516. The test is described as above. Format: cell-based. The note with it: for MIC: Pseudomonas aeruginosa. On the procedure:
as §1

For test [6], the system named is Proteus mirabilis (Fin 9). The experiment in a line: Acute mouse protection test. It counts as in vivo, Proteus mirabilis; female, swiss albino mice. To be noted: ip, 168 h, read-out: Effective Dose50 (ED50). On the procedure: (§2) The acute mouse protection test is conducted on 10 mice with each of 5 levels of dug. Mouse mortality is used to calculate a ED50 value, i.e., dose of drug required to protect 50% of the test animals.
(§3) The acute mouse protection test is conducted on female, swiss albino mice, 18-20 grams in weight. The mice are injected intraperitoneally with an 18 hour culture of the indicated test organism diluted sufficiently to provide the desired LD50 value. To check potency of the infection a titration of the indicated test organism is carried out in control animals. The treatment group of animals is dosed with the test fortimicin at one and five hours post-infection and observed for seven days. The ED50 values are calculated using the mortality data collected.

Test [7] deals with Klebsiella pneumoniae (4508). In words: Acute mouse protection test. It counts as in vivo, Klebsiella pneumoniae; female, swiss albino mice. To be noted: ip, 168 h, read-out: Effective Dose50 (ED50). On the procedure: as §2, §3
A further test concerns Escherichia coli (Juhl). The experiment in a line: Acute mouse protection test. Format: in vivo, Escherichia coli; female, swiss albino mice. To be noted: ip, 168 h, read-out: Effective Dose50 (ED50). On the procedure:
as §2, §3

[8] abbreviates: Proteus mirabilis Fin. #9, Mueller-Hinton agar, 37° C., 24 hours.
The mark [9] stands for this setting: Providencia 1577, Mueller-Hinton agar, 37° C., 24 hours.
Where [10] appears, read: Pseudo. aeruginosa BMH #10, Mueller-Hinton agar, 37° C., 24 hours.
Where [11] appears, read: E. coli BL 3676 (Res), Mueller-Hinton agar, 37° C., 24 hours.
Setting [12] is: Staph. aureus Smith, Mueller-Hinton agar, 37° C., 24 hours.
[13] abbreviates: Psuedo. aeruginosa 209, Mueller-Hinton agar, 37° C., 24 hours.
The mark [14] stands for this setting: Sal. typhimurium Ed. #9, Mueller-Hinton agar, 37° C., 24 hours.
[15] abbreviates: E. coli Juhl, Mueller-Hinton agar, 37° C., 24 hours.
[16] abbreviates: Proteus vulgaris JJ, Mueller-Hinton agar, 37° C., 24 hours.

Counter-ions that a name gives are not always drawn. Like-named read-outs stand apart in the source and are kept apart here. A value given as a limit tells only on which side of the number the result lay.

As for `COC1C(O)C(N)C(OC2OC(C(C)N)CCC2N)C(O)C1N(C)C(=O)CN` (stereo not drawn) [Fortimicin A disulfate, fortimicin A disulfate], the MIC in test [1] (Proteus mirabilis, 24 h) was 6.2 µg/mL; in the test on Providencia 1577 (Providencia, 1577, 24 h), 3.1 µg/mL; in test [2] (KY8512, 24 h, read-out: Minimum inhibitory concentration (MIC), Pseudo. aeruginosa KY 8512, 37° C.) it was 12.5 µg/mL; in the test with Proteus rettigeri U6333 (24 h, read-out: Minimum inhibitory concentration (MIC), Proteus rettigeri U6333, 37° C.), 12.5 µg/mL; in test [3] (24 h), 0.78 µg/mL; in the test on Kleb. pneumoniae KY 4262 (KY4262, 24 h, read-out: Minimum inhibitory concentration (MIC), Kleb. pneumoniae KY 4262, 37° C.) it was 6.2 µg/mL. Moreover, the MIC in the test on E. coli BL 3676 (Res) (24 h) is 25 µg/mL; in the test on Staph. aureus Smith (24 h), 0.78 µg/mL; with Psuedo. aeruginosa 209 (24 h) it was over 100 µg/mL; in test [4] (Klebsiella aerogenes, 13048, 24 h) it was 3.1 µg/mL; in the test with Kleb. pneumoniae 10031 (Klebsiella pneumoniae, 10031, 24 h, read-out: Minimum inhibitory concentration (MIC), Kleb. pneumoniae 10031, 37° C.), 3.1 µg/mL; with Sal. typhimurium Ed. #9 (TYPHIMURIUM, 24 h), 1.56 µg/mL. The MIC in the test on Psuedo. aeruginosa 27853 (24 h, read-out: Minimum inhibitory concentration (MIC), Psuedo. aeruginosa 27853, 37° C.) was found to be 12.5 µg/mL; in the test with E. coli 76-2 (Escherichia coli, 762, 24 h, read-out: Minimum inhibitory concentration (MIC), E. coli 76-2, 37° C.), 6.2 µg/mL; in the test on Serratis marcescens 4003 (24 h, read-out: Minimum inhibitory concentration (MIC), Serratis marcescens 4003, 37° C.), 1.56 µg/mL; in the test with E. coli Juhl (24 h) it was 6.2 µg/mL; with Proteus vulgaris JJ (Proteus vulgaris, 24 h) it was 6.2 µg/mL; with Strep. faecalis 10541 (Enterococcus faecalis, 10541, 24 h), 50 µg/mL. The MIC in test [5] (KY8516, 24 h, read-out: Minimum inhibitory concentration (MIC), Pseudo. aeruginosa KY 8516, 37° C.) is 50 µg/mL. Besides, the “Minimum inhibitory concentration (MIC)” value in the test on Shigella sonnei 9290 turned out to be 6.2 µg/mL. The ED50 (commonly the midpoint of the dose-response relation) in test [6] (Proteus mirabilis) is 7.5 mg/kg; in test [7] (Klebsiella pneumoniae), 2.5 mg/kg; in the test on Escherichia coli (Juhl) (Escherichia coli), 4.6 mg/kg.
In the case of `COC1C(O)C(N)C(OC2OC(C(C)N)CCC2N)C(O)C1N(C)C(=O)CN` (stereo not drawn) [Fortimicin A tetrahydrochloride], the “Minimum inhibitory concentration (MIC)” value in [1] (setting [8]) turned out to be 6.2 µg/mL; in the test on Providencia 1577 (setting [9]), 3.1 µg/mL; in [2] (Pseudo. aeruginosa KY 8512, 37° C., 24 hours), 25 µg/mL; in the test on Proteus rettigeri U6333 (Proteus rettigeri U6333, 37° C., 24 hours), 25 µg/mL; in [3] (setting [10]) it was 0.78 µg/mL; in the test on Kleb. pneumoniae KY 4262 (Kleb. pneumoniae KY 4262, 37° C., 24 hours), 3.1 µg/mL. The “Minimum inhibitory concentration (MIC)” value in the test on E. coli BL 3676 (Res) (setting [11]) was 25 µg/mL; with Staph. aureus Smith (setting [12]), 0.78 µg/mL; in the test on Psuedo. aeruginosa 209 (setting [13]), over 100 µg/mL; in test [4] (Enterobacter aerogenes 13048, Mueller-Hinton agar, 37° C., 24 hours), 3.1 µg/mL; with Kleb. pneumoniae 10031 (Kleb. pneumoniae 10031, 37° C., 24 hours), 1.56 µg/mL; with Sal. typhimurium Ed. #9 (setting [14]), 1.56 µg/mL. The “Minimum inhibitory concentration (MIC)” value worked out at 25 µg/mL in the test on Psuedo. aeruginosa 27853 (Psuedo. aeruginosa 27853, 37° C., 24 hours); 3.1 µg/mL with E. coli 76-2 (E. coli 76-2, 37° C., 24 hours); 12.5 µg/mL with Shigella sonnei 9290; 3.1 µg/mL in the test on Serratis marcescens 4003 (Serratis marcescens 4003, 37° C., 24 hours); 6.2 µg/mL with E. coli Juhl (setting [15]); 6.2 µg/mL in the test on Proteus vulgaris JJ (setting [16]). Besides, the “Minimum inhibitory concentration (MIC)” value turned out to be 50 µg/mL in the test on Strep. faecalis 10541 (Strep. faecalis 10541, Mueller-Hinton agar, 37° C., 24 hours) and 100 µg/mL in test [5] (Pseudo. aeruginosa KY 8516, 37° C., 24 hours).
Turning to `COC1CC(N)C(OC2OC(C(C)N)CCC2N)C(O)C1N(C)C(=O)CN` (stereo not drawn) [2-deoxyfortimicin A tetrahydrochloride, 2-Deoxyfortimicin A Tetrahydrochloride], the MIC in test [1] (setting [8]) came out at 6.2 µg/mL; in the test on Providencia 1577 (setting [9]) it was 3.1 µg/mL; in test [2] (KY8512, Pseudo. aeruginosa KY 8512, 37° C., 24 hours, read-out: Minimum inhibitory concentration (MIC)), 12.5 µg/mL; in the test on Proteus rettigeri U6333 (Proteus rettigeri U6333, 37° C., 24 hours, read-out: Minimum inhibitory concentration (MIC)), 25 µg/mL; in test [3] (setting [10]), 0.78 µg/mL; in the test on Kleb. pneumoniae KY 4262 (KY4262, Kleb. pneumoniae KY 4262, 37° C., 24 hours, read-out: Minimum inhibitory concentration (MIC)), 6.2 µg/mL. Further, the MIC was 25 µg/mL with E. coli BL 3676 (Res) (setting [11]); 0.78 µg/mL in the test with Staph. aureus Smith (setting [12]); over 100 µg/mL in the test on Psuedo. aeruginosa 209 (setting [13]); 3.1 µg/mL in test [4] (Klebsiella aerogenes, Enterobacter aerogenes 13048, Mueller-Hinton agar, 37° C., 24 hours); 1.56 µg/mL with Kleb. pneumoniae 10031 (Klebsiella pneumoniae, Kleb. pneumoniae 10031, 37° C., 24 hours, read-out: Minimum inhibitory concentration (MIC)); 1.56 µg/mL in the test with Sal. typhimurium Ed. #9 (setting [14]). For the same compound, the MIC was found to be 12.5 µg/mL in the test with Psuedo. aeruginosa 27853 (Psuedo. aeruginosa 27853, 37° C., 24 hours, read-out: Minimum inhibitory concentration (MIC)); 3.1 µg/mL with E. coli 76-2 (Escherichia coli, 762, E. coli 76-2, 37° C., 24 hours, read-out: Minimum inhibitory concentration (MIC)); 6.2 µg/mL in the test on Shigella sonnei 9290 (Shigella sonnei, 9290, 24 h, read-out: Minimum inhibitory concentration (MIC)); 3.1 µg/mL in the test with Serratis marcescens 4003 (Serratis marcescens 4003, 37° C., 24 hours, read-out: Minimum inhibitory concentration (MIC)); 6.2 µg/mL with E. coli Juhl (setting [15]); 3.1 µg/mL with Proteus vulgaris JJ (setting [16]). Besides, the MIC in the test with Strep. faecalis 10541 (Enterococcus faecalis, Strep. faecalis 10541, Mueller-Hinton agar, 37° C., 24 hours) turned out to be 50 µg/mL; in [5] (KY8516, Pseudo. aeruginosa KY 8516, 37° C., 24 hours, read-out: Minimum inhibitory concentration (MIC)), 50 µg/mL. Further, the ED50 in test [6] (Proteus mirabilis (Fin 9) infected intraperitoneally, dosed one and five hours post-infection, observed seven days) came out at 4.7 mg/kg; in test [7] (Klebsiella pneumoniae (4508) infected intraperitoneally, dosed one and five hours post-infection, observed seven days) it was 1.5 mg/kg; with Escherichia coli (Juhl) (Escherichia coli (Juhl) infected intraperitoneally, dosed one and five hours post-infection, observed seven days), 4.7 mg/kg.

For the origin of these results see patent publication US4192867A, “2-Deoxyfortimicin A, 4-N-alkyl and 4-N-acyl-2-deoxyfortimicin B derivatives” (Abbott Laboratories, priority 1977, dated 1980).
